Tests used:
Type in all cases: binding
Casein = target: T1, Casein; test: nano-DSF F350/F330 titration, […] fit; details: 37 °C, phosphate buffer pH 6.8, 1:1 stoichiometry assumed
T1 construct: gene CSN1S1

[1] = target: T2, bovine serum albumin (BSA) (Bos taurus, UniProt P02769); test: nano-DSF F350/F330 titration, […] fit; details: read-out: Ka [M^-1] (converted)
T2 construct: gene ALB

Ovalbumin (OVA) = target: T3, Ovalbumin (OVA) (Gallus gallus, UniProt P01012); test: nano-DSF F350/F330 ratio; details: 1000 µM; phosphate buffer pH 6.8; 5 µM protein
T3 construct: gene SERPINB14
T3 sequence (P01012 2-386): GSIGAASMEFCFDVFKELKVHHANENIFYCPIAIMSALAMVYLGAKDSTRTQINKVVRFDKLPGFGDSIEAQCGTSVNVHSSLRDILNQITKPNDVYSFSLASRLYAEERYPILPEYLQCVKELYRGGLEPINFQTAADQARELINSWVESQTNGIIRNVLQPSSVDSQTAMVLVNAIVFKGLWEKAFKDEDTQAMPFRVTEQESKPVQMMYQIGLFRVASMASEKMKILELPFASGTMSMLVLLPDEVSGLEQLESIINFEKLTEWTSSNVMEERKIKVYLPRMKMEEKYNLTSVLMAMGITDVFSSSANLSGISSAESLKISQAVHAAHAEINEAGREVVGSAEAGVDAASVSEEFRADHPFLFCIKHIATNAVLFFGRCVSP
Description: nano-DSF F350/F330 ratio on Ovalbumin (OVA)

[2] = target: T2, bovine serum albumin (BSA); test: nano-DSF F350/F330 ratio; details: 1000 µM; phosphate buffer pH 6.8; 5 µM protein
Description: nano-DSF F350/F330 ratio on bovine serum albumin (BSA)

T2 sequence (P02769 25-607): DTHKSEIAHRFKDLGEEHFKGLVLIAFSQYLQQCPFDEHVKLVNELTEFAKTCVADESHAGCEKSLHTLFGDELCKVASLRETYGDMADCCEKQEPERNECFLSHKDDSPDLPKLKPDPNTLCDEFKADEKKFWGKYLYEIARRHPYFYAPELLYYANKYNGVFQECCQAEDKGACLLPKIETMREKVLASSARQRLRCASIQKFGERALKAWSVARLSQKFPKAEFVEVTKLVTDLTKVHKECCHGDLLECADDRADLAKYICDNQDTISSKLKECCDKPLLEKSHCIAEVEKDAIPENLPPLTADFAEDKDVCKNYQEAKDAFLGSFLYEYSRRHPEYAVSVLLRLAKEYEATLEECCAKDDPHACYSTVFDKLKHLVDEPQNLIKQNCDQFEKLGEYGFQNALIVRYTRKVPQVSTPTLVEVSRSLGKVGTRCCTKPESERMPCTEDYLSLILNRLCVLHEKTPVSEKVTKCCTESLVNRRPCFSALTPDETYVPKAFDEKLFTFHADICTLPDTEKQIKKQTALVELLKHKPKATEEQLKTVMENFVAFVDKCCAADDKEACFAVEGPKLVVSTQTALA

Compound	Ka [M^-1] (Casein)	Kd [1] [µM]	F350/F330 fluorescence ratio (Ovalbumin (OVA))	also measured
O=C(/C=C/c1ccc(O)c(O)c1)O[C@H]1[C@H](O)C[C@](O)(C(=O)O)C[C@H]1OC(=O)/C=C/c1ccc(O)c(O)c1 [3,4-diCQA]	41 271	18	–	–
O=C(/C=C/c1ccc(O)c(O)c1)O[C@@H]1C[C@](O)(C(=O)O)C[C@@H](O)[C@H]1O [5-CQA]	21 450	–	1.02	–
O=C(O[C@@H]1Cc2c(O)cc(O)cc2O[C@@H]1c1cc(O)c(O)c(O)c1)c1cc(O)c(O)c(O)c1 [EGCG]	–	–	1.25	F350/F330 fluorescence ratio [2]: 1.57
Oc1cc(O)c2c(c1)O[C@H](c1ccc(O)c(O)c1)[C@H](O)C2 [Epicatechin]	–	–	–	Ka (Casein; µM column is the reciprocal of Ka, the M^-1 cell is misprinted (7 1616)): 139.6 µM
O=C(OC[C@H]1O[C@H](OC(=O)c2cc(O)c(O)c(O)c2)[C@H](OC(=O)c2cc(O)c(O)c(O)c2)[C@@H](OC(=O)c2cc(O)c(O)c(O)c2)[C@@H]1OC(=O)c1cc(O)c(O)c(O)c1)c1cc(O)c(O)c(O)c1 [α-PGG]	–	89.3	–	–
O=C(OC[C@H]1O[C@@H](OC(=O)c2cc(O)c(O)c(O)c2)[C@H](OC(=O)c2cc(O)c(O)c(O)c2)[C@@H](OC(=O)c2cc(O)c(O)c(O)c2)[C@@H]1OC(=O)c1cc(O)c(O)c(O)c1)c1cc(O)c(O)c(O)c1 [β-PGG]	–	118	–	–

Reference: article PMC11858516, “Promiscuity in Polyphenol–Protein Interactions—Monitoring Protein Conformational Change upon Polyphenol–Protein Binding by Nano-Differential Fluorimetry (Nano-DSF)” (Molecules, 2025)
